Reference: paper PMC6364417, “Kinase inhibitor library screening identifies synergistic drug combinations effective in sensitive and resistant melanoma cells” (Journal of Experimental & Clinical Cancer Research : CR, 2019)

Tests used:
Experiment in all cases: Kinase inhibitor library screening, PrestoBlue cell viability, 1 or 10 μM, 72 h
[1] = tested on: A375 cells (parental); settings: for Cell viability in kinase inhibitor library screening, A375 Parental, 10μΜ / Cell viability in kinase inhibitor library screening, A375 Parental, 1μΜ / cell viability, A375 Parental, 1μΜ / cell viability, A375 Parental, 10μΜ: 72 h; for cell viability, A375 Parental, 1μΜ / cell viability, A375 Parental, 10μΜ: in %; for viability at 1 µM / viability at 10 µM: Homo sapiens, A-375, 72 h; for viability at 1 µM: read-out: cell viability, A375 Parental, 1μΜ; for viability at 10 µM: read-out: cell viability, A375 Parental, 10μΜ
[2] = tested on: A375-XP cells (Vemurafenib-resistant); settings: for Cell viability in kinase inhibitor library screening, A375 XP, 1μΜ / Cell viability in kinase inhibitor library screening, A375 XP, 10μΜ / cell viability, A375 XP, 1μΜ / cell viability, A375 XP, 10μΜ: 72 h; for cell viability, A375 XP, 1μΜ / cell viability, A375 XP, 10μΜ: in %; for viability at 1 µM / viability at 10 µM: Homo sapiens, A-375, 72 h; for viability at 1 µM: read-out: cell viability, A375 XP, 1μΜ; for viability at 10 µM: read-out: cell viability, A375 XP, 10μΜ
[3] = tested on: A375-GP cells (Dabrafenib-resistant); settings: for Cell viability in kinase inhibitor library screening, A375 GP, 1μΜ / Cell viability in kinase inhibitor library screening, A375 GP, 10μΜ / cell viability, A375 GP, 1μΜ / cell viability, A375 GP, 10μΜ: 72 h; for cell viability, A375 GP, 1μΜ / cell viability, A375 GP, 10μΜ: in %; for viability at 1 µM / viability at 10 µM: Homo sapiens, A-375, 72 h; for viability at 1 µM: read-out: cell viability, A375 GP, 1μΜ; for viability at 10 µM: read-out: cell viability, A375 GP, 10μΜ
[4] = tested on: IGR37-GP cells (Dabrafenib-resistant); settings: for Cell viability in kinase inhibitor library screening, IGR37 GP, 10μΜ / Cell viability in kinase inhibitor library screening, IGR37 GP, 1μΜ / cell viability, IGR37 GP, 10μΜ / cell viability, IGR37 GP, 1μΜ: 72 h; for Cell viability in kinase inhibitor library screening, IGR37 GP, 1μΜ / cell viability, IGR37 GP, 1μΜ: in %; for viability at 1 µM / viability at 10 µM: Homo sapiens, IGR-37, 72 h; for viability at 1 µM: read-out: cell viability, IGR37 GP, 1μΜ; for viability at 10 µM: read-out: cell viability, IGR37 GP, 10μΜ
[5] = tested on: 501Mel-GP cells (Dabrafenib-resistant); settings: 72 h; for Cell viability in kinase inhibitor library screening, 501Mel GP, 1μΜ / Cell viability in kinase inhibitor library screening, 501Mel GP, 10μΜ / cell viability, 501Mel GP, 1μΜ / cell viability, 501Mel GP, 10μΜ: in %; for viability at 1 µM / viability at 10 µM: Homo sapiens; for viability at 1 µM: read-out: cell viability, 501Mel GP, 1μΜ; for viability at 10 µM: read-out: cell viability, 501Mel GP, 10μΜ
[6] = tested on: IGR37 cells (parental); settings: for Cell viability in kinase inhibitor library screening, IGR37 Parental, 1μΜ / Cell viability in kinase inhibitor library screening, IGR37 Parental, 10μΜ / cell viability, IGR37 Parental, 1μΜ / cell viability, IGR37 Parental, 10μΜ: 72 h, in %; for viability at 1 µM / viability at 10 µM: Homo sapiens, IGR-37, 72 h; for viability at 1 µM: read-out: cell viability, IGR37 Parental, 1μΜ; for viability at 10 µM: read-out: cell viability, IGR37 Parental, 10μΜ
[7] = tested on: 501Mel cells (parental); settings: 72 h; for viability at 1 µM / viability at 10 µM: Homo sapiens; for viability at 1 µM: read-out: cell viability, 501Mel Parental, 1μΜ; for viability at 10 µM: read-out: cell viability, 501Mel Parental, 10μΜ
Method in brief: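 Cells are treated with each inhibitor at 1 or 10 μM, incubated 72 h, then PrestoBlue reagent is added and the plate is read. Data are normalised to untreated cells.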

[8] = tested on: 501Mel-XP cells (Vemurafenib-resistant); settings: 72 h; for Cell viability in kinase inhibitor library screening, 501Mel XP, 1μΜ / Cell viability in kinase inhibitor library screening, 501Mel XP, 10μΜ / cell viability, 501Mel XP, 1μΜ / cell viability, 501Mel XP, 10μΜ: in %; for viability at 1 µM / viability at 10 µM: Homo sapiens; for viability at 1 µM: read-out: cell viability, 501Mel XP, 1μΜ; for viability at 10 µM: read-out: cell viability, 501Mel XP, 10μΜ
[9] = tested on: IGR37-XP cells (Vemurafenib-resistant); settings: for Cell viability in kinase inhibitor library screening, IGR37 XP, 10μΜ / Cell viability in kinase inhibitor library screening, IGR37 XP, 1μΜ / cell viability, IGR37 XP, 10μΜ / cell viability, IGR37 XP, 1μΜ: 72 h; for Cell viability in kinase inhibitor library screening, IGR37 XP, 1μΜ / cell viability, IGR37 XP, 1μΜ: in %; for viability at 1 µM / viability at 10 µM: Homo sapiens, IGR-37, 72 h; for viability at 1 µM: read-out: cell viability, IGR37 XP, 1μΜ; for viability at 10 µM: read-out: cell viability, IGR37 XP, 10μΜ

SMILES | Cell viability in kinase inhibitor library screening, A375 Parental, 10μΜ [1] | Cell viability in kinase inhibitor library screening, A375 Parental, 1μΜ [1] | Cell viability in kinase inhibitor library screening, A375 XP, 1μΜ [2] | Cell viability in kinase inhibitor library screening, A375 XP, 10μΜ [2] | Cell viability in kinase inhibitor library screening, A375 GP, 1μΜ [3] | Cell viability in kinase inhibitor library screening, A375 GP, 10μΜ [3] | Cell viability in kinase inhibitor library screening, IGR37 GP, 10μΜ [4] [%] | Cell viability in kinase inhibitor library screening, IGR37 GP, 1μΜ [4] | Cell viability in kinase inhibitor library screening, 501Mel GP, 1μΜ [5] | Cell viability in kinase inhibitor library screening, 501Mel GP, 10μΜ [5] | Cell viability in kinase inhibitor library screening, IGR37 Parental, 1μΜ [6] | Cell viability in kinase inhibitor library screening, IGR37 Parental, 10μΜ [6] | Cell viability in kinase inhibitor library screening, 501Mel Parental, 1μΜ ([7]; 501Mel Parental, 1μΜ, in %) | Cell viability in kinase inhibitor library screening, 501Mel Parental, 10μΜ ([7]; 501Mel Parental, in %) | Cell viability in kinase inhibitor library screening, 501Mel XP, 1μΜ [8] | Cell viability in kinase inhibitor library screening, 501Mel XP, 10μΜ [8] | Cell viability in kinase inhibitor library screening, IGR37 XP, 10μΜ [9] [%] | Cell viability in kinase inhibitor library screening, IGR37 XP, 1μΜ [9] | further results
c1cncc(CN2CCC(n3ncc4c(N5CCOCC5)nc(-c5ccc6[nH]ccc6c5)nc43)CC2)c1 [WAY-600] | 22.3 | 84.4 | 76.7 | 16.9 | 82.4 | 21.9 | 18.4 | 95.3 | 72.3 | 4.3 | 93.5 | 26.3 | 86.8 | 3.0 | 56.9 | 1.0 | 4.5 | 84.1 | –
COc1cc2ncnc(Nc3ccc(O)c(Br)c3)c2cc1OC [WHI-P154] | – | – | – | – | – | – | – | – | – | – | – | – | – | – | – | – | – | – | cell viability, A375 Parental, 1μΜ [1]: 98.9; cell viability, A375 Parental, 10μΜ [1]: 86.7; cell viability, A375 XP, 1μΜ [2]: 105.6; cell viability, A375 XP, 10μΜ [2]: 90.7; cell viability, A375 GP, 1μΜ [3]: 96.6; cell viability, A375 GP, 10μΜ [3]: 85.7; cell viability, IGR37 GP, 10μΜ [4]: 72.3%; cell viability, IGR37 GP, 1μΜ [4]: 94.4; cell viability, 501Mel GP, 1μΜ [5]: 99.5; cell viability, 501Mel GP, 10μΜ [5]: 77.2; cell viability, IGR37 Parental, 1μΜ [6]: 97.1; cell viability, IGR37 Parental, 10μΜ [6]: 93.0; cell viability, 501Mel Parental, 1μΜ ([7]; 501Mel Parental, 1μΜ, in %): 97.4; cell viability, 501Mel Parental, 10μΜ ([7]; 501Mel Parental, in %): 93.8; cell viability, 501Mel XP, 1μΜ [8]: 89.8; cell viability, 501Mel XP, 10μΜ [8]: 63.6; cell viability, IGR37 XP, 10μΜ [9]: 36.2%; cell viability, IGR37 XP, 1μΜ [9]: 91.6
C[C@H](NC(=O)/C(C#N)=C/c1cccc(Br)n1)c1ccccc1 [WP1066] | – | – | – | – | – | – | – | – | – | – | – | – | – | – | – | – | – | – | viability at 1 µM [1]: 106%; viability at 10 µM [1]: 5.4%; viability at 1 µM [2]: 103%; viability at 10 µM [2]: 6.7%; viability at 1 µM [3]: 92.5%; viability at 10 µM [3]: 4.5%; viability at 1 µM [4]: 92.6%; viability at 10 µM [4]: 5.1%; viability at 1 µM [5]: 102%; viability at 10 µM [5]: 1.2%; viability at 1 µM [6]: 110%; viability at 10 µM [6]: 0.9%; viability at 1 µM [7]: 96.9%; viability at 10 µM [7]: 0.369%; viability at 1 µM [8]: 91.3%; viability at 10 µM [8]: -0.0613%; viability at 1 µM [9]: 92.4%; viability at 10 µM [9]: 3.2%
COC(=O)Nc1ccc(-c2nc(N3CCOCC3)c3cnn(C4CCN(C(=O)OC)CC4)c3n2)cc1 [WYE-354] | 24.6 | 84.7 | 76.7 | 19.6 | 80.7 | 21.5 | 31.6 | 85.9 | 76.5 | 16.5 | 82.1 | 28.9 | 85.1 | 21.3 | 63.3 | 8.7 | 10.6 | 82.2 | –
COC(=O)Nc1ccc(-c2nc(N3CCOCC3)c3cnn(C4CCN(Cc5cccnc5)CC4)c3n2)cc1 [WYE-687] | 21.5 | 74.1 | 59.8 | 19.2 | 67.7 | 19.9 | 24.9 | 77.7 | 55.7 | 10.7 | 75.9 | 26.2 | 65.3 | 9.6 | 83.5 | 7.5 | 7 | 62.5 | –
CNC(=O)Nc1ccc(-c2nc(N3CC4CCC(C3)O4)c3cnn(C4CCC5(CC4)OCCO5)c3n2)cc1 [WYE-125132] | 19.3 | 22.3 | 19.4 | 17.0 | 22.4 | 15.7 | 34 | 43.3 | 16.3 | 8.1 | 27.6 | 22.1 | 17.3 | 5.8 | 18.5 | 5.5 | 12.8 | 30.9 | –
C=CC(=O)Nc1cccc(Oc2nc(Nc3ccc(N4CCN(C)CC4)cc3)ncc2Cl)c1 [WZ3146] | – | – | – | – | – | – | – | – | – | – | – | – | – | – | – | – | – | – | cell viability, A375 Parental, 1μΜ [1]: 87.2; cell viability, A375 Parental, 10μΜ [1]: 30.7; cell viability, A375 XP, 1μΜ [2]: 94.3; cell viability, A375 XP, 10μΜ [2]: 20.1; cell viability, A375 GP, 1μΜ [3]: 82.9; cell viability, A375 GP, 10μΜ [3]: 22.9; cell viability, IGR37 GP, 10μΜ [4]: 39%; cell viability, IGR37 GP, 1μΜ [4]: 92.8; cell viability, 501Mel GP, 1μΜ [5]: 102.6; cell viability, 501Mel GP, 10μΜ [5]: 53.7; cell viability, IGR37 Parental, 1μΜ [6]: 96.7; cell viability, IGR37 Parental, 10μΜ [6]: 56.4; cell viability, 501Mel Parental, 10μΜ ([7]; 501Mel Parental, in %): 1.1; cell viability, 501Mel XP, 1μΜ [8]: 78.6; cell viability, 501Mel XP, 10μΜ [8]: 0.0384; cell viability, IGR37 XP, 10μΜ [9]: 7%; cell viability, IGR37 XP, 1μΜ [9]: 73.3
C=CC(=O)Nc1cccc(Oc2nc(Nc3ccc(N4CCN(C)CC4)cc3OC)ncc2Cl)c1 [WZ4002] | – | – | – | – | – | – | – | – | – | – | – | – | – | – | – | – | – | – | viability at 1 µM [1]: 103%; viability at 10 µM [1]: 23.8%; viability at 1 µM [2]: 104%; viability at 10 µM [2]: 6%; viability at 1 µM [3]: 96.3%; viability at 10 µM [3]: 3.9%; viability at 1 µM [4]: 91.8%; viability at 10 µM [4]: 16.7%; viability at 1 µM [5]: 109%; viability at 10 µM [5]: -0.074%; viability at 1 µM [6]: 101%; viability at 10 µM [6]: 2%; viability at 1 µM [7]: 107%; viability at 10 µM [7]: -0.0492%; viability at 1 µM [8]: 104%; viability at 10 µM [8]: -0.3%; viability at 1 µM [9]: 85.2%; viability at 10 µM [9]: 1.4%
